Measured values published in patent US11446287B2, “Compounds and methods for EP300 or CBP modulation and indications therefor” (Opna Immuno-Oncology SA, priority 2019, dated 2022).

The compounds below were run against T1, Recombinant human EP300 containing the bromodomain (EP300-BD (1040-1161)) (Homo sapiens, UniProt Q09472) (assay: EP300 Alphascreen binding assay).
T1 construct: Recombinant human EP300 bromodomain (EP300-BD (1040-1161)); made in house; host or cells: E. coli BL21-CodonPlus (DE3), modified pET vector
T1 sequence (Q09472 1040-1161): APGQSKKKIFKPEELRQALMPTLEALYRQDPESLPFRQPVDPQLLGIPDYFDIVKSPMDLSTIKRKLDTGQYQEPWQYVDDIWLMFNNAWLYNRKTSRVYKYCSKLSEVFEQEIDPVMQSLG
In short: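 Displacement of a biotinylated acetyl-K56 histone H3 peptide from the N-His bromodomain construct (1040-1161) measured by AlphaScreen proximity, beads at 7.5 μg/ml final, read 60 min after addition. Protein, peptide and compound first incubated 1 h at room temperature, pH 7.5 HEPES buffer; IC50 by four-parameter logistic fit.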

Compound	IC50 [µM]
Cc1noc(C)c1-c1cnc2c(c1)c(-c1ccc(C(=O)O)cc1)cn2[C@@H](C)c1ccccn1 [P-0001, (S)-4-(5-(3,5-dimethylisoxazol-4-yl)-1-(1-(pyridin-2-yl)ethyl)-1H-pyrrolo[2,3-b]pyridin-3-yl)benzoic acid]	0.0001 to 1
Cc1noc(C)c1-c1cnc2c(c1)c(-c1ccc(C(=O)O)cc1)cn2C(c1ccccn1)C1CCCC1 (stereo not shown) [P-0002, 4-(1-(cyclopentyl(pyridin-2-yl)methyl)-5-(3,5-dimethylisoxazol-4-yl)-1H-pyrrolo[2,3-b]pyridin-3-yl)benzoic acid]	0.0001 to 1
Cc1noc(C)c1-c1cnc2c(c1)c(-c1ccccc1)cn2C(c1ccccn1)C1CCCC1 (stereo not shown) [P-0003, 4-(1-(cyclopentyl(pyridin-2-yl)methyl)-3-phenyl-1H-pyrrolo[2,3-b]pyridin-5-yl)-3,5-dimethylisoxazole]	8 to 1000
Cc1noc(C)c1-c1cnc2c(c1)c(-c1ccc(C(=O)O)cc1)cn2C(c1ccccn1)C1CCCCC1 (stereo not shown) [P-0004, 4-(1-(cyclohexyl(pyridin-2-yl)methyl)-5-(3,5-dimethylisoxazol-4-yl)-1H-pyrrolo[2,3-b]pyridin-3-yl)benzoic acid]	0.0001 to 1
COC(=O)c1ccc(-c2cn(S(=O)(=O)c3ccc(C)cc3)c3ncc(-c4c(C)noc4C)cc23)cc1 [P-0005, methyl 4-(5-(3,5-dimethylisoxazol-4-yl)-1-tosyl-1H-pyrrolo[2,3-b]pyridin-3-yl)benzoate]	8 to 1000
Cc1noc(C)c1-c1cnc2c(c1)c(-c1ccnc(C(=O)O)c1)cn2S(=O)(=O)c1ccccc1 [P-0055, 4-(5-(3,5-dimethylisoxazol-4-yl)-1-(phenylsulfonyl)-1H-pyrrolo[2,3-b]pyridin-3-yl)picolinic acid]	0.0001 to 1
COc1cccc(Cn2cc(-c3cccc(C(=O)O)c3)c3cc(-c4c(C)noc4C)cnc32)c1 [P-0056, 3-(5-(3,5-dimethylisoxazol-4-yl)-1-(3-methoxybenzyl)-1H-pyrrolo[2,3-]pyridin-3-yl)benzoic acid]	0.0001 to 1
COc1cccc(Cn2cc(-c3ccnc(C(=O)O)c3)c3cc(-c4c(C)noc4C)cnc32)c1 [P-0057, 4-(5-(3,5-dimethylisoxazol-4-yl)-1-(3-methoxybenzyl)-1H-pyrrolo[2,3-b]pyridin-3-yl)picolinic acid]	0.0001 to 1
Cc1noc(C)c1-c1cnc2c(c1)c(-c1cccc(C(=O)O)c1)cn2C(C1CC1)C1CC1 [P-0058, 3-(1-(dicyclopropylmethyl)-5-(3,5-dimethylisoxazol-4-yl)-1H-pyrrolo[2,3-b]pyridin-3-yl)benzoic acid]	0.0001 to 1
Cc1noc(C)c1-c1cnc2c(c1)c(-c1cccc(C(=O)O)c1)cn2Cc1cccc(OC(F)(F)F)c1 [P-0059, 3-(5-(3,5-dimethylisoxazol-4-yl)-1-(3-(trifluoromethoxy)benzyl)-1H-pyrrolo[2,3-b]pyridin-3-yl)benzoic acid]	0.0001 to 1
Cc1noc(C)c1-c1cnc2c(c1)c(-c1cccc(C(=O)O)c1)cn2Cc1cccc(F)c1 [P-0060, 3-(5-(3,5-dimethylisoxazol-4-yl)-1-(3-fluorobenzyl)-1H-pyrrolo[2,3-b]pyridin-3-yl)benzoic acid]	0.0001 to 1
Cc1noc(C)c1-c1cnc2c(c1)c(-c1cccc(C(=O)O)c1)cn2Cc1cccc(Cl)c1 [P-0061, 3-(1-(3-chlorobenzyl)-5-(3,5-dimethylisoxazol-4-yl)-1H-pyrrolo[2,3-b]pyridin-3-yl)benzoic acid]	0.0001 to 1
Cc1cccc(Cn2cc(-c3cccc(C(=O)O)c3)c3cc(-c4c(C)noc4C)cnc32)c1 [P-0062, 3-(5-(3,5-dimethylisoxazol-4-yl)-1-(3-methylbenzyl)-1H-pyrrolo[2,3-b]pyridin-3-yl)benzoic acid]	0.0001 to 1
Cc1noc(C)c1-c1cnc2c(c1)c(-c1cccc(C(=O)O)c1)cn2Cc1cccc(C(F)(F)F)c1 [P-0063, 3-(5-(3,5-dimethylisoxazol-4-yl)-1-(3-(trifluoromethyl)benzyl)-1H-pyrrolo[2,3-b]pyridin-3-yl)benzoic acid]	0.0001 to 1
Cc1noc(C)c1-c1cnc2c(CC3CCC3)cn(-c3ccc(C(=O)O)cc3OC(F)F)c2c1 [P-0064, 4-(3-(cyclobutylmethyl)-6-(3,5-dimethylisoxazol-4-yl)-1H-pyrrolo[3,2-b]pyridin-1-yl)-3-(difluoromethoxy)benzoic acid]	0.0001 to 1
Cc1noc(C)c1-c1cnc2c(CC3CC3)cn(-c3ccnc(C(=O)O)c3)c2c1 [P-0065, 4-(3-(cyclopropylmethyl)-6-(3,5-dimethylisoxazol-4-yl)-1H-pyrrolo[3,2-b]pyridin-1-yl)picolinic acid]	0.0001 to 1
Cc1noc(C)c1-c1cnc2c(CC3CCC3)cn(-c3ccc(C(=O)O)cc3OC(F)(F)F)c2c1 [P-0066, 4-(3-(cyclobutylmethyl)-6-(3,5-dimethylisoxazol-4-yl)-1H-pyrrolo[3,2-b]pyridin-1-yl)-3-(trifluoromethoxy)benzoic acid]	0.0001 to 1
COc1cc(C(=O)O)cc(OC)c1-n1cc(CC2CCC2)c2ncc(-c3c(C)noc3C)cc21 [P-0067, 4-(3-(cyclobutylmethyl)-6-(3,5-dimethylisoxazol-4-yl)-1H-pyrrolo[3,2-b]pyridin-1-yl)-3,5-dimethoxybenzoic acid]	0.0001 to 1
Cc1noc(C)c1-c1cnc2c(CC3CCC3)cn(-c3ccc(S(C)(=O)=O)c(F)c3)c2c1 [P-0068, 4-(3-(cyclobutylmethyl)-1-(3-fluoro-4-(methylsulfonyl)phenyl)-1H-pyrrolo[3,2-b]pyridin-6-yl)-3,5-dimethylisoxazole]	0.0001 to 1
Cc1noc(C)c1-c1cnc2c(c1)c(C#CC(=O)O)cn2Cc1ccccc1 [P-0069, 3-(1-benzyl-5-(3,5-dimethylisoxazol-4-yl)-1H-pyrrolo[2,3-b]pyridin-3-yl)propiolic acid]	0.0001 to 1
Cc1noc(C)c1-c1cnc2c(c1)c(-c1ccc(C(=O)O)cc1OC(F)(F)F)cn2[C@@H](C)c1ccccn1 [P-0070, (S)-4-(5-(3,5-dimethylisoxazol-4-yl)-1-(1-(pyridin-2-yl)ethyl)-1H-pyrrolo[2,3-b]pyridin-3-yl)-3-(trifluoromethoxy)benzoic acid]	0.0001 to 1
Cc1noc(C)c1-c1cnc2c(c1)c(-c1ccc(C(=O)O)cc1OC(F)F)cn2[C@@H](C)c1ccccn1 [P-0071, (S)-3-(difluoromethoxy)-4-(5-(3,5-dimethylisoxazol-4-yl)-1-(1-(pyridin-2-yl)ethyl)-1H-pyrrolo[2,3-b]pyridin-3-yl)benzoic acid]	0.0001 to 1
Cc1noc(C)c1-c1cnc2c(c1)c(-c1cccc(C(=O)O)c1)cn2C(C1CCC1)C1CCC1 [P-0072, 3-(1-(dicyclobutylmethyl)-5-(3,5-dimethylisoxazol-4-yl)-1H-pyrrolo[2,3-b]pyridin-3-yl)benzoic acid]	0.0001 to 1
Cc1noc(C)c1-c1cnc2c(c1)c(-c1cccc(C(=O)O)c1)cn2C(c1ccccn1)C1CCC1 (stereo not shown) [P-0073, 3-(1-(cyclobutyl(pyridin-2-yl)methyl)-5-(3,5-dimethylisoxazol-4-yl)-1H-pyrrolo[2,3-b]pyridin-3-yl)benzoic acid]	0.0001 to 1
Cc1noc(C)c1-c1cnc2c(CC3CCC3)cn(-c3c(Cl)cc(C(=O)O)cc3Cl)c2c1 [P-0074, 3,5-dichloro-4-(3-(cyclobutylmethyl)-6-(3,5-dimethylisoxazol-4-yl)-1H-pyrrolo[3,2-b]pyridin-1-yl)benzoic acid]	0.0001 to 1
